In patent publication US20180319810A1, “SUBSTITUTED BRIDGED UREA ANALOGS AS SIRTUIN MODULATORS” (GlaxoSmithKline Intellectual Property (No.2) Limited, priority 2014, published 2018):

What follows are compounds tested against T1, SIRT1 (Homo sapiens, UniProt Q96EB6) (assay: Trp mass spectrometry assay of SIRT1 activation). Settings: Trp peptide Ac-R-H-K-K(Ac)-W-NH2 0.5 μM, 120 μM βNAD+, 10 nM SIRT1, 25 min, 25° C.
T1 sequence (Q96EB6 1-747): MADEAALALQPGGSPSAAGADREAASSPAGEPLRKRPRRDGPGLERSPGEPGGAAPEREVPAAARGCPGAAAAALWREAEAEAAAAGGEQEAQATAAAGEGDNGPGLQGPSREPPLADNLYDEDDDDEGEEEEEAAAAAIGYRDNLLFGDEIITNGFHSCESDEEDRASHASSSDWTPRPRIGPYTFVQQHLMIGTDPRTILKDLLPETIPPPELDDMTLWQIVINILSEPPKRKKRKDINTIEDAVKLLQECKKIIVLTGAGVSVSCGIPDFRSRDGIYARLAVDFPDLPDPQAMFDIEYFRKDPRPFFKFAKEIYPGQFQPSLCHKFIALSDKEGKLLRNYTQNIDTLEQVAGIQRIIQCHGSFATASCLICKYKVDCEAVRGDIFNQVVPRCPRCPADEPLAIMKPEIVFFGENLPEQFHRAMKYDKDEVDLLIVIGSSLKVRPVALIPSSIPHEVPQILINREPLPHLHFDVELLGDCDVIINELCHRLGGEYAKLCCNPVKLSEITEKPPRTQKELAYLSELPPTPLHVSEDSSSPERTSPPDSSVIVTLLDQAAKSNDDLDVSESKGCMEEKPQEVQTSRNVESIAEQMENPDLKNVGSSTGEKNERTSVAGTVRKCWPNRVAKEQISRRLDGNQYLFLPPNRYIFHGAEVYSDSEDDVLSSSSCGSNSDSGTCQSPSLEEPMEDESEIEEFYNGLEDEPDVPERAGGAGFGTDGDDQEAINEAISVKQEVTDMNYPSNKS
Type: biochemical

Structure (SMILES) | TRP Activity (EC1.5, concentration of compound required to increase SIRT1 activity by 50% over control) | TRP MAX RESP (percent maximum fold activation relative to control)
O=C(Nc1cncc(OC[C@H](O)CO)c1)N1c2nc(-c3cccc(C(F)(F)F)c3)ncc2N2CCC[C@H]1C2 [Example 81, (9S)—N-(5-((R)-2,3-dihydroxypropoxy)pyridin-3-yl)-2-(3-(trifluoromethyl)phenyl)-8,9-dihydro-6H-5,9-methanopyrimido[4,5-b][1,4]diazocine-10(7H)-carboxamide] | A (EC1.5<1 μM) | A (Fold activation ≥150%)
O=C(Nc1ccc(OC[C@H](O)CO)nc1)N1c2nc(-c3cccc(C(F)(F)F)c3)ncc2N2CCC[C@H]1C2 [Example 82, (9S)—N-(6-((R)-2,3-dihydroxypropoxy)pyridin-3-yl)-2-(3-(trifluoromethyl)phenyl)-8,9-dihydro-6H-5,9-methanopyrimido[4,5-b][1,4]diazocine-10(7H)-carboxamide] | A (EC1.5<1 μM) | A (Fold activation ≥150%)
O=C(Nc1cnc(OC[C@@H](O)CO)cn1)N1c2nc(-c3cccc(C(F)(F)F)c3)ncc2N2CCC[C@H]1C2 [Example 83, (9S)—N-(5-((S)-2,3-dihydroxypropoxy)pyrazin-2-yl)-2-(3-(trifluoromethyl)phenyl)-8,9-dihydro-6H-5,9-methanopyrimido[4,5-b][1,4]diazocine-10(7H)-carboxamide] | A (EC1.5<1 μM) | A (Fold activation ≥150%)
O=C(Nc1cccc(OC[C@@H](O)CO)n1)N1c2nc(-c3cccc(C(F)(F)F)c3)ncc2N2CCC[C@H]1C2 [Example 84, (9S)—N-(6-((S)-2,3-dihydroxypropoxy)pyridin-2-yl)-2-(3-(trifluoromethyl)phenyl)-8,9-dihydro-6H-5,9-methanopyrimido[4,5-b][1,4]diazocine-10(7H)-carboxamide] | A (EC1.5<1 μM) | A (Fold activation ≥150%)
O=C(Nc1ccnc(OC[C@@H](O)CO)c1)N1c2nc(-c3cccc(C(F)(F)F)c3)ncc2N2CCC[C@H]1C2 [Example 85, (9S)—N-(2-((S)-2,3-dihydroxypropoxy)pyridin-4-yl)-2-(3-(trifluoromethyl)phenyl)-8,9-dihydro-6H-5,9-methanopyrimido[4,5-b][1,4]diazocine-10(7H)-carboxamide] | A (EC1.5<1 μM) | A (Fold activation ≥150%)
O=C(Nc1ccccn1)N1c2nc(-c3cccc(C(F)(F)F)c3)ncc2N2CCC[C@H]1C2 [Example 86, (9S)—N-(pyridin-2-yl)-2-(3-(trifluoromethyl)phenyl)-8,9-dihydro-6H-5,9-methanopyrimido[4,5-b][1,4]diazocine-10(7H)-carboxamide] | A (EC1.5<1 μM) | 
O=C(NC1CC1)N1c2nc(-c3cccc(C(F)(F)F)c3)ncc2N2CCC[C@H]1C2 [Example 87, (9S)—N-cyclopropyl-2-(3-(trifluoromethyl)phenyl)-8,9-dihydro-6H-5,9-methanopyrimido[4,5-b][1,4]diazocine-10(7H)-carboxamide] | A (EC1.5<1 μM) | A (Fold activation ≥150%)
O=C(Nc1ccnc(OC[C@H](O)CO)n1)N1c2nc(-c3cccc(C(F)(F)F)c3)ncc2N2CCC[C@H]1C2 [Example 88, (9S)—N-(2-((R)-2,3-dihydroxypropoxy)pyrimidin-4-yl)-2-(3-(trifluoromethyl)phenyl)-8,9-dihydro-6H-5,9-methanopyrimido[4,5-b][1,4]diazocine-10(7H)-carboxamide] | A (EC1.5<1 μM) | A (Fold activation ≥150%)
O=C(Nc1cccc(OC[C@H](O)CO)n1)N1c2nc(-c3cccc(C(F)(F)F)c3)ncc2N2CCC[C@H]1C2 [Example 89, (9S)—N-(6-((R)-2,3-dihydroxypropoxy)pyridin-2-yl)-2-(3-(trifluoromethyl)phenyl)-8,9-dihydro-6H-5,9-methanopyrimido[4,5-b][1,4]diazocine-10(7H)-carboxamide] | A (EC1.5<1 μM) | A (Fold activation ≥150%)
O=C(Nc1ccnc(OC[C@H](O)CO)c1)N1c2nc(-c3cccc(C(F)(F)F)c3)ncc2N2CCC[C@H]1C2 [Example 90, (9S)—N-(2-((R)-2,3-dihydroxypropoxy)pyridin-4-yl)-2-(3-(trifluoromethyl)phenyl)-8,9-dihydro-6H-5,9-methanopyrimido[4,5-b][1,4]diazocine-10(7H)-carboxamide] | A (EC1.5<1 μM) | A (Fold activation ≥150%)
O=C(Nc1cc(OC[C@@H](O)CO)ccn1)N1c2nc(-c3cccc(C(F)(F)F)c3)ncc2N2CCC[C@H]1C2 [Example 91, (9S)—N-(4-((S)-2,3-dihydroxypropoxy)pyridin-2-yl)-2-(3-(trifluoromethyl)phenyl)-8,9-dihydro-6H-5,9-methanopyrimido[4,5-b][1,4]diazocine-10(7H)-carboxamide] | A (EC1.5<1 μM) | A (Fold activation ≥150%)
O=C(Nc1cc(OC[C@H](O)CO)ncn1)N1c2nc(-c3cccc(C(F)(F)F)c3)ncc2N2CCC[C@H]1C2 [Example 92, (9S)—N-(6-((R)-2,3-dihydroxypropoxy)pyrimidin-4-yl)-2-(3-(trifluoromethyl)phenyl)-8,9-dihydro-6H-5,9-methanopyrimido[4,5-b][1,4]diazocine-10(7H)-carboxamide] | A (EC1.5<1 μM) | A (Fold activation ≥150%)
O=C(Nc1ncc(OC[C@@H](O)CO)cn1)N1c2nc(-c3cccc(C(F)(F)F)c3)ncc2N2CCC[C@H]1C2 [Example 93, (9S)—N-(5-((S)-2,3-dihydroxypropoxy)pyrimidin-2-yl)-2-(3-(trifluoromethyl)phenyl)-8,9-dihydro-6H-5,9-methanopyrimido[4,5-b][1,4]diazocine-10(7H)-carboxamide] | B (EC1.5 1-25 μM) | A (Fold activation ≥150%)
O=C(Nc1cncc(OC[C@@H](O)CO)c1)N1c2nc(-c3cccc(C(F)(F)F)c3)ncc2N2CCC[C@H]1C2 [Example 94, (9S)—N-(5-((S)-2,3-dihydroxypropoxy)pyridin-3-yl)-2-(3-(trifluoromethyl)phenyl)-8,9-dihydro-6H-5,9-methanopyrimido[4,5-b][1,4]diazocine-10(7H)-carboxamide] | A (EC1.5<1 μM) | A (Fold activation ≥150%)
O=C(Nc1cncc(OC[C@H](O)CO)n1)N1c2nc(-c3cccc(C(F)(F)F)c3)ncc2N2CCC[C@H]1C2 [Example 95, (9S)—N-(6-((R)-2,3-dihydroxypropoxy)pyrazin-2-yl)-2-(3-(trifluoromethyl)phenyl)-8,9-dihydro-6H-5,9-methanopyrimido[4,5-b][1,4]diazocine-10(7H)-carboxamide] | A (EC1.5<1 μM) | A (Fold activation ≥150%)
O=C(Nc1cc(OC[C@@H](O)CO)ncn1)N1c2nc(-c3cccc(C(F)(F)F)c3)ncc2N2CCC[C@H]1C2 [Example 96, (9S)—N-(6-((S)-2,3-dihydroxypropoxy)pyrimidin-4-yl)-2-(3-(trifluoromethyl)phenyl)-8,9-dihydro-6H-5,9-methanopyrimido[4,5-b][1,4]diazocine-10(7H)-carboxamide] | A (EC1.5<1 μM) | A (Fold activation ≥150%)
O=C(Nc1cnc(OC[C@H](O)CO)cn1)N1c2nc(-c3cccc(C(F)(F)F)c3)ncc2N2CCC[C@H]1C2 [Example 97, (9S)—N-(5-((R)-2,3-dihydroxypropoxy)pyrazin-2-yl)-2-(3-(trifluoromethyl)phenyl)-8,9-dihydro-6H-5,9-methanopyrimido[4,5-b][1,4]diazocine-10(7H)-carboxamide] | A (EC1.5<1 μM) | A (Fold activation ≥150%)
